Data on two molecules can be found in ChEMBL document CHEMBL1151696 (Bioorg Med Chem, 2008).

Active and inactive are the calls of the source. No cut-off for these calls is given here.

For orientation: IC50 means the midpoint of a concentration-inhibition curve. By EC50 is commonly meant the midpoint of the concentration-response curve.

For series [1], the species on record is Rattus norvegicus. Put plainly: Inhibition of [3H]dopamine uptake in Wistar rat striatum synaptosomes at 100 uM by scintillation spectrometry. The class given is functional, subcellular. Also noted: scale not given: the % may be the effect or the level left.
Series [2] can be described thus: Cytotoxicity against MDCK cells by MTS assay. The class given is cell-based, Canis lupus familiaris. The following applies: dog. Background: Formazan colour is commonly taken as a measure of viable cells.
For series [3], the system named is Trypanosoma brucei. Put plainly: Trypanocidal activity against Trypanosoma brucei 427 blood stream after 48 hrs by hemocytometer. In kind it is functional, organism-based. The conditions noted are these: Trypanosoma brucei, 427, 48 h.
Series [4] has as its system Influenza A virus H3N2. The class given is functional, organism-based, Influenza A virus (A/Hong Kong/7/1987(H3N2)). The following applies: MDCK.
Series [5] has as its system Influenza A virus. The series is described as follows: microbe, parasite or virus in culture. The conditions noted are these: A/Puerto Rico/8/1934(H1N1), MDCK.
Series [6] relates to Influenza B virus. In kind it is functional, organism-based. The following applies: B/Hong Kong/05/1972, MDCK.
In series [7] the test system is Feline coronavirus. The class given is functional, organism-based.
For series [8], the system named is Respiratory syncytial virus. The class given is functional, organism-based.
Series [9] deals with Vesicular stomatitis virus. The class given is functional, organism-based.
The target of series [10] is T1, Glutamate NMDA receptor (Rattus norvegicus) (UniProt P35439+Q00959+Q00960+Q00961+Q62645+Q8VHN2+Q9R1M7). The series is described as follows: Antagonist activity at NMDA receptor in cerebellar granule neurons assessed as inhibition of NMDA-induced increase in intracellular calcium concentration by fluorometric assay. The class given is functional, cell-based. (In general: Calcium assays in cells follow changes in intracellular calcium, usually with a dye or a luminescent sensor.)

Series [11] has as its system Punta Toro virus. In kind it is functional, organism-based.
Series [12] deals with Human respirovirus 3. In kind it is functional, organism-based.
Series [13] concerns Coxsackievirus B4. The class given is functional, organism-based.
Series [14] concerns Human alphaherpesvirus 2. The class given is functional, organism-based.
Series [15] deals with Mammalian orthoreovirus 1. The class given is functional, organism-based.
In series [16] the target is T1, Glutamate NMDA receptor (Rattus norvegicus). The series is described as follows: Antagonist activity at NMDA receptor in cerebellar granule neurons assessed as inhibition of glutamate-induced increase in intracellular calcium concentration by fluorometric assay. In kind it is functional, cell-based.
The subject of series [17] is Human alphaherpesvirus 1. The class given is functional, organism-based.
Series [18] deals with Sindbis virus. The class given is functional, organism-based.

In series [1], `NC12CC3CC(CC(C3)C1)C2` [AMANTADINE] returned an Activity of 47.4%. In addition, the MCC in [2] is above 100 µM. This molecule had an IC50 in series [3] above 130 µM. Besides, the EC50 in [4] came out at 2.7 µM; in series [5] it was 77 µM. Further, the result in series [6] was inactive.

On to `CC12CC3CC1(C)CC3(N(Cc1ccccc1)Cc1ccccc1)C2`, for which the result in series [7], in series [8], in [9], in series [10], in series [11] and in series [12] was inactive. The result in series [13], in series [14], in series [15], in [16], in series [17] and in [18] was inactive. The same molecule yielded an Activity in [1] of 74.3%.
